≈ marks a conversion by molar mass, not a printed value.
What was measured:
Type in all cases: functional
Staphylococcus = experiment: Antibacterial activity against coagulase-negative Staphylococcus clinical isolate by broth microdilution method
Streptococcus pyogenes = experiment: Antibacterial activity against Streptococcus pyogenes clinical isolate by broth microdilution method
Listeria monocytogenes = experiment: Antibacterial activity against Listeria monocytogenes clinical isolate by broth microdilution method
Corynebacterium sp. = experiment: Antibacterial activity against Corynebacterium sp. by broth microdilution method
Neisseria sp. = experiment: Antibacterial activity against Neisseria sp. by broth microdilution method
Moraxella catarrhalis = experiment: Antibacterial activity against Moraxella catarrhalis clinical isolate by broth microdilution method
Haemophilus influenzae = experiment: Antibacterial activity against Haemophilus influenzae clinical isolate by broth microdilution method
Citrobacter koseri = experiment: Antibacterial activity against Citrobacter diversus clinical isolate by broth microdilution method
Citrobacter freundii = experiment: Antibacterial activity against Citrobacter freundii clinical isolate by broth microdilution method
Klebsiella aerogenes = experiment: Antibacterial activity against Enterobacter aerogenes clinical isolate by broth microdilution method
Enterobacter cloacae = experiment: Antibacterial activity against Enterobacter cloacae clinical isolate by broth microdilution method
Escherichia coli = experiment: Antibacterial activity against Escherichia coli clinical isolate by broth microdilution method
Klebsiella oxytoca = experiment: Antibacterial activity against Klebsiella oxytoca clinical isolate by broth microdilution method
Klebsiella pneumoniae [1] = experiment: Antibacterial activity against Klebsiella pneumoniae clinical isolate by broth microdilution method
Klebsiella pneumoniae [2] = experiment: Antibacterial activity against extended-spectrum beta-lactamase producing Klebsiella pneumoniae clinical isolate by broth microdilution method
Serratia marcescens = experiment: Antibacterial activity against Serratia marcescens clinical isolate by broth microdilution method
Proteus mirabilis = experiment: Antibacterial activity against Proteus mirabilis clinical isolate by broth microdilution method
Proteus vulgaris = experiment: Antibacterial activity against Proteus vulgaris clinical isolate by broth microdilution method
Morganella morganii = experiment: Antibacterial activity against Morganella morganii clinical isolate by broth microdilution method
Providencia rettgeri = experiment: Antibacterial activity against Providencia rettgeri clinical isolate by broth microdilution method
Salmonella sp. = experiment: Antibacterial activity against Salmonella sp. by broth microdilution method
Shigella sp. = experiment: Antibacterial activity against Shigella sp. by broth microdilution method
Pseudomonas aeruginosa = experiment: Antibacterial activity against Pseudomonas aeruginosa clinical isolate by broth microdilution method
Burkholderia cepacia = experiment: Antibacterial activity against Burkholderia cepacia clinical isolate by broth microdilution method
Acinetobacter sp. = experiment: Antibacterial activity against Acinetobacter sp. by broth microdilution method
[3] = test system: Stenotrophomonas maltophilia; experiment: Antibacterial activity against Stenotrophomonas maltophilia clinical isolate by broth microdilution method
Legionella pneumophila = experiment: Antibacterial activity against Legionella pneumophila clinical isolate by broth microdilution method
Staphylococcus aureus [4] = experiment: Antibacterial activity against methicillin-susceptible Staphylococcus aureus clinical isolate by broth microdilution method
Staphylococcus aureus [5] = experiment: Antibacterial activity against methicillin-resistant Staphylococcus aureus clinical isolate by broth microdilution method
Staphylococcus aureus [6] = experiment: Antibacterial activity against glycopeptide-intermediate Staphylococcus aureus clinical isolate by broth microdilution method
[7] = test system: Staphylococcus epidermidis; experiment: Antibacterial activity against methicillin-susceptible Staphylococcus epidermidis clinical isolate by broth microdilution method
Enterococcus faecalis [8] = experiment: Antibacterial activity against vancomycin-susceptible Enterococcus faecalis clinical isolate by broth microdilution method
Enterococcus faecalis [9] = experiment: Antibacterial activity against vancomycin-resistant Enterococcus faecalis clinical isolate by broth microdilution method
Enterococcus faecium [10] = experiment: Antibacterial activity against vancomycin-susceptible Enterococcus faecium clinical isolate by broth microdilution method
Enterococcus faecium [11] = experiment: Antibacterial activity against vancomycin-resistant Enterococcus faecium clinical isolate by broth microdilution method
Streptococcus pneumoniae [12] = experiment: Antibacterial activity against penicillin-susceptible Streptococcus pneumoniae clinical isolate by broth microdilution method
Streptococcus pneumoniae [13] = experiment: Antibacterial activity against penicillin-nonsusceptible Streptococcus pneumoniae clinical isolate by broth microdilution method
Staphylococcus aureus [14] = experiment: Antibacterial activity against linezolid-resistant Staphylococcus aureus 01A1220 by broth microdilution method
Staphylococcus aureus [15] = experiment: Antibacterial activity against linezolid-resistant Staphylococcus aureus 01A1221 by broth microdilution method
Enterococcus faecalis [16] = experiment: Antibacterial activity against linezolid-resistant Enterococcus faecalis 03A1128 by broth microdilution method
Enterococcus faecium [17] = experiment: Antibacterial activity against linezolid-resistant Enterococcus faecium 03B1073 by broth microdilution method
Enterococcus faecium [18] = experiment: Antibacterial activity against linezolid-resistant Enterococcus faecium 03B1077 by broth microdilution method
Enterococcus faecium [19] = experiment: Antibacterial activity against linezolid-resistant Enterococcus faecium 03B1074 by broth microdilution method
Enterococcus faecium [20] = experiment: Antibacterial activity against linezolid-resistant Enterococcus faecium 03B1075 by broth microdilution method
Enterococcus faecium [21] = experiment: Antibacterial activity against linezolid-resistant Enterococcus faecium 03B1078 by broth microdilution method
Enterococcus faecium [22] = experiment: Antibacterial activity against linezolid-resistant Enterococcus faecium 03B1076 by broth microdilution method

Work on C[C@H]1COc2c(N3CCN(C)CC3)c(F)cc3c(=O)c(C(=O)O)cn1c23.C[C@H]1COc2c(N3CCN(C)CC3)c(F)cc3c(=O)c(C(=O)O)cn1c23.O [LEVOFLOXACIN] yielded an MIC50 (Staphylococcus) of 0.25 µg/mL, an MIC90 (Staphylococcus) of 32 µg/mL and an MIC50 (Streptococcus pyogenes) of 0.5 µg/mL. It also gave an MIC90 (Streptococcus pyogenes) of 2 µg/mL, an MIC50 (Listeria monocytogenes) of 1 µg/mL and an MIC90 (Listeria monocytogenes) of 1 µg/mL. The MIC50 (Corynebacterium sp.) was 0.5 µg/mL, the MIC90 (Corynebacterium sp.) was 32 µg/mL and the MIC50 (Neisseria sp.) was 0.008 µg/mL. For the same molecule, the MIC90 (Neisseria sp.) was 0.008 µg/mL, the MIC50 (Moraxella catarrhalis) was 0.06 µg/mL and the MIC90 (Moraxella catarrhalis) was 0.06 µg/mL. The MIC50 (Haemophilus influenzae) was 0.015 µg/mL, the MIC90 (Haemophilus influenzae) was 0.25 µg/mL and the MIC50 (Citrobacter koseri) was 0.06 µg/mL. For the same molecule, the MIC90 (Citrobacter koseri) was 8 µg/mL, the MIC50 (Citrobacter freundii) was 0.06 µg/mL and the MIC90 (Citrobacter freundii) was 8 µg/mL. For the same molecule, the MIC50 (Klebsiella aerogenes) was 0.06 µg/mL, the MIC90 (Klebsiella aerogenes) was 8 µg/mL and the MIC50 (Enterobacter cloacae) was 0.06 µg/mL. The MIC90 (Enterobacter cloacae) was 8 µg/mL, the MIC50 (Escherichia coli) was 0.06 µg/mL and the MIC90 (Escherichia coli) was 8 µg/mL. The MIC50 (Klebsiella oxytoca) was 0.06 µg/mL, the MIC90 (Klebsiella oxytoca) was 8 µg/mL and the MIC50 (Klebsiella pneumoniae [1]) was 0.06 µg/mL. For the same molecule, the MIC90 (Klebsiella pneumoniae [1]) was 8 µg/mL, the MIC50 (Klebsiella pneumoniae [2]) was 0.06 µg/mL and the MIC90 (Klebsiella pneumoniae [2]) was 8 µg/mL. The MIC50 (Serratia marcescens) was 0.06 µg/mL, the MIC90 (Serratia marcescens) was 8 µg/mL and the MIC50 (Proteus mirabilis) was 0.06 µg/mL. For the same molecule, the MIC90 (Proteus mirabilis) was 8 µg/mL, the MIC50 (Proteus vulgaris) was 0.06 µg/mL and the MIC90 (Proteus vulgaris) was 8 µg/mL. For the same molecule, the MIC50 (Morganella morganii) was 0.06 µg/mL, the MIC90 (Morganella morganii) was 8 µg/mL and the MIC50 (Providencia rettgeri) was 0.06 µg/mL. It also gave an MIC90 (Providencia rettgeri) of 8 µg/mL, an MIC50 (Salmonella sp.) of 0.06 µg/mL and an MIC90 (Salmonella sp.) of 8 µg/mL. The MIC50 (Shigella sp.) was 0.06 µg/mL, the MIC90 (Shigella sp.) was 8 µg/mL and the MIC50 (Pseudomonas aeruginosa) was 2 µg/mL. For the same molecule, the MIC90 (Pseudomonas aeruginosa) was 16 µg/mL, the MIC50 (Burkholderia cepacia) was 2 µg/mL and the MIC90 (Burkholderia cepacia) was 16 µg/mL. The MIC50 (Acinetobacter sp.) was 2 µg/mL, the MIC90 (Acinetobacter sp.) was 16 µg/mL and the MIC50 [3] was 2 µg/mL. For the same molecule, the MIC90 [3] was 16 µg/mL, the MIC50 (Legionella pneumophila) was 0.004 µg/mL and the MIC90 (Legionella pneumophila) was 0.015 µg/mL.
CC(=O)NC[C@H]1CN(c2ccc(N3CCOCC3)c(F)c2)C(=O)O1 [LINEZOLID] was tested, and the MIC50 (Staphylococcus aureus [4]) was 2 µg/mL (≈ 5.93 µM), the MIC90 (Staphylococcus aureus [4]) was 2 µg/mL (≈ 5.93 µM) and the MIC (Staphylococcus aureus [5]) was 1 µg/mL (≈ 2.96 µM). For the same molecule, the MIC50 (Staphylococcus aureus [5]) was 1 µg/mL (≈ 2.96 µM), the MIC90 (Staphylococcus aureus [5]) was 1 µg/mL (≈ 2.96 µM) and the MIC (Staphylococcus aureus [6]) was 0.5 µg/mL (≈ 1.48 µM). The MIC50 [7] was 0.5 µg/mL (≈ 1.48 µM), the MIC90 [7] was 1 µg/mL (≈ 2.96 µM) and the MIC50 (Staphylococcus) was 2 µg/mL (≈ 5.93 µM). The MIC90 (Staphylococcus) was 2 µg/mL (≈ 5.93 µM), the MIC50 (Enterococcus faecalis [8]) was 2 µg/mL (≈ 5.93 µM) and the MIC90 (Enterococcus faecalis [8]) was 2 µg/mL (≈ 5.93 µM). It also gave an MIC50 (Enterococcus faecalis [9]) of 2 µg/mL (≈ 5.93 µM), an MIC90 (Enterococcus faecalis [9]) of 2 µg/mL (≈ 5.93 µM) and an MIC (Enterococcus faecium [10]) of 2 µg/mL (≈ 5.93 µM). It also gave an MIC50 (Enterococcus faecium [10]) of 2 µg/mL (≈ 5.93 µM), an MIC90 (Enterococcus faecium [10]) of 2 µg/mL (≈ 5.93 µM) and an MIC50 (Enterococcus faecium [11]) of 2 µg/mL (≈ 5.93 µM). For the same molecule, the MIC90 (Enterococcus faecium [11]) was 4 µg/mL (≈ 11.9 µM), the MIC50 (Streptococcus pneumoniae [12]) was 1 µg/mL (≈ 2.96 µM) and the MIC90 (Streptococcus pneumoniae [12]) was 1 µg/mL (≈ 2.96 µM). It also gave an MIC50 (Streptococcus pneumoniae [13]) of 0.5 µg/mL (≈ 1.48 µM), an MIC90 (Streptococcus pneumoniae [13]) of 1 µg/mL (≈ 2.96 µM) and an MIC50 (Streptococcus pyogenes) of 2 µg/mL (≈ 5.93 µM). It also gave an MIC90 (Streptococcus pyogenes) of 2 µg/mL (≈ 5.93 µM), an MIC (Listeria monocytogenes) of 2 µg/mL (≈ 5.93 µM) and an MIC50 (Listeria monocytogenes) of 2 µg/mL (≈ 5.93 µM). The MIC90 (Listeria monocytogenes) was 2 µg/mL (≈ 5.93 µM), the MIC50 (Corynebacterium sp.) was 1 µg/mL (≈ 2.96 µM) and the MIC90 (Corynebacterium sp.) was 1 µg/mL (≈ 2.96 µM). For the same molecule, the MIC (Staphylococcus aureus [14]) was greater than 32 µg/mL, the MIC (Staphylococcus aureus [15]) was greater than 32 µg/mL and the MIC (Enterococcus faecalis [16]) was greater than 32 µg/mL. For the same molecule, the MIC (Enterococcus faecium [17]) was 2 µg/mL (≈ 5.93 µM), the MIC (Enterococcus faecium [18]) was 8 µg/mL (≈ 23.7 µM) and the MIC (Enterococcus faecium [19]) was 32 µg/mL (≈ 94.9 µM). The MIC (Enterococcus faecium [20]) was 32 µg/mL (≈ 94.9 µM), the MIC (Enterococcus faecium [21]) was 32 µg/mL (≈ 94.9 µM) and the MIC (Enterococcus faecium [22]) was 32 µg/mL (≈ 94.9 µM).
